Data: paper PMC4677984, “Activation of Muscarinic M1 Acetylcholine Receptors Induces Long-Term Potentiation in the Hippocampus” (Cerebral Cortex (New York, NY), 2015)

Tests used:
[1] = tested on: Gαq activation in M1 KO hippocampal membranes
Description: (§1) All procedures were performed at 4°C. […] Homogenate was centrifuged at 1000×g for 10 min and supernatant collected, the pellet was rehomogenized and centrifuged again, as above, and supernatant pooled and centrifuged at 11 000×g for 20 min. The resulting pellet was suspended in a final storage buffer (10 mM HEPES, 1 mM EGTA, 1 mM MgCl2, 1 mM DTT; pH 7.4) and centrifuged at 27 000×g for 20 min. Supernatant was removed and the final pellet suspended in 2 mL of final storage buffer. Protein concentration was measured using the Bradford method ([Bradford 1976]) (Coomassie Plus, Bio-Rad protein assay kit) with bovine gamma globulin standards. Samples were then aliquoted and stored at −80°C.
GTPɣ[^35S] binding in mouse WT and M1 KO hippocampal membranes were determined in triplicate using an antibody capture technique in 96-well plate format ([DeLapp et al. 1999]). Membrane aliquots (15 µg/well) from WT or M1 KO C57BL6/NTac mice were incubated with test compound and GTPɣ[^35S] (500 pM/well) for 30 min. […] Plates were left to incubate for 3 h and then centrifuged for 10 min at 2000 rpm. Plates were counted for 1 min/well using a Wallac MicroBeta Trilux scintillation counter (PerkinElmer). […]
(§2) For data analysis, relative EC50 and IC50 values were calculated using a 4-parameter logistic curve (GraphPad Prism v6).

mouse native M1Rs = mouse native M1Rs (Mus musculus, UniProt P12657); experiment: biochemical
Description: as §1
GTPɣ[^35S] binding in mouse WT and M1 KO hippocampal membranes were determined in triplicate using an antibody capture technique in 96-well plate format ([DeLapp et al. 1999]). Membrane aliquots (15 µg/well) from WT or M1 KO C57BL6/NTac mice were incubated with test compound and GTPɣ[^35S] (500 pM/well) for 30 min. […] Plates were left to incubate for 3 h and then centrifuged for 10 min at 2000 rpm. Plates were counted for 1 min/well using a Wallac MicroBeta Trilux scintillation counter (PerkinElmer). All incubations took place at room temperature in GTP-binding assay buffer (In mM, 20 HEPES, 100 NaCl, 5 MgCl2; pH 7.4).
as §2

cognition = details: clinical study; ref Nathan et al. 2013; cited from earlier work
[2] = tested on: CA1 pyramidal cell firing; details: studies not reported here; reversed by scopolamine
[3] = tested on: CA1 pyramidal neurons (M1R KO); details: 7 µM, M1R KO mice
CA1 pyramidal neurons [4] = details: 7 µM, WT mice, NBQX + L-689,560, -55 mV
[5] = tested on: CA1 pyramidal neurons (M1R KO); details: 7 µM, M1R KO mice; remark: listed apart in the source
CA1 pyramidal neurons [6] = tested on: CA1 pyramidal neurons
CA1 pyramidal neurons [7] = details: 7 µM, WT mice 6-9 weeks
dopamine D2 receptors = details: ref Melancon et al. 2013; cited from earlier work
human M4 receptors [8] = molecular target: T1, human M4 receptors (Homo sapiens, UniProt P08173); experiment: cell-based
Description: (§3) CHO cells stably expressing recombinant human M1, M3, and M5 Rs and AV12 cells stably expressing Gα15 and recombinant human M2 or M4 Rs were cultured in DMEM with high glucose and pyridoxine hydrochloride supplemented with 5–10% heat-inactivated fetal bovine serum, 10–20 mM HEPES, 1 mM L-glutamine, 1% penicillin/streptomycin solution and selection agents, 0.5 mg/mL geneticin, or 0.3 µg/mL puromycin. Confluent cultures were passaged weekly and cells harvested 24 h prior to assay using 0.25% trypsin–EDTA and plated at a density of 40 000–50 000 cells per well in tissue culture treated, poly-D-lysine-coated 96-well black-walled, clear bottom plates (Corning or Becton-Dickinson). For FLIPR (FLIPR-tetra, Molecular Devices) assays, media was removed and cells were incubated with 5 µM Fluo-4-AM/0.05% pluronic F-127 (Invitrogen) in a HEPES-buffered salt solution (HEPES-HBSS; composition, in mM; 135 NaCl, 5 KCl, 1.3 CaCl2, 0.5 MgCl2, 0.4 MgSO4, 0.4 KH2PO4, 4.2 NaHCO3, 0.3 Na2HPO4, 5.6 glucose, 20 HEPES, +2.5 mM probenecid for CHO cell lines, pH 7.5 adjusted with 5 M NaOH) for 1 h at room temperature, in the dark, before the media was removed and replaced with HEPES-buffered salt solution in the absence of Fluo-4. Probenecid was included to optimize dye loading in CHO cell lines. Although probenecid has been reported to interact and activate some TRP channels {McClenaghan, 2012 #2996}, there are no reports of interactions with mAChRs or nontransfected CHO cells. Plates were then transferred to FLIPR for experiments, which were also conducted at room temperature.
as §2

human M5 receptors [9] = molecular target: T2, human M5 receptors (Homo sapiens, UniProt P08912); experiment: cell-based
Description: as §3, §2

human M2 receptors [10] = molecular target: T3, human M2 receptors (Homo sapiens, UniProt P08172); experiment: cell-based
Description: as §3, §2

5-HT2B receptors = details: ref Melancon et al. 2013; cited from earlier work
human M1Rs = human M1Rs (Homo sapiens, UniProt P11229); experiment: cell-based
Description: CHO cells stably expressing recombinant human M1, M3, and M5 Rs and AV12 cells stably expressing Gα15 and recombinant human M2 or M4 Rs were cultured in DMEM with high glucose and pyridoxine hydrochloride supplemented with 5–10% heat-inactivated fetal bovine serum, 10–20 mM HEPES, 1 mM L-glutamine, 1% penicillin/streptomycin solution and selection agents, 0.5 mg/mL geneticin, or 0.3 µg/mL puromycin. Confluent cultures were passaged weekly and cells harvested 24 h prior to assay using 0.25% trypsin–EDTA and plated at a density of 40 000–50 000 cells per well in tissue culture treated, poly-D-lysine-coated 96-well black-walled, clear bottom plates (Corning or Becton-Dickinson). For FLIPR (FLIPR-tetra, Molecular Devices) assays, media was removed and cells were incubated with 5 µM Fluo-4-AM/0.05% pluronic F-127 (Invitrogen) in a HEPES-buffered salt solution (HEPES-HBSS; composition, in mM; 135 NaCl, 5 KCl, 1.3 CaCl2, 0.5 MgCl2, 0.4 MgSO4, 0.4 KH2PO4, 4.2 NaHCO3, 0.3 Na2HPO4, 5.6 glucose, 20 HEPES, +2.5 mM probenecid for CHO cell lines, pH 7.5 adjusted with 5 M NaOH) for 1 h at room temperature, in the dark, before the media was removed and replaced with HEPES-buffered salt solution in the absence of Fluo-4. […]

human M4 receptors [11] = molecular target: T1, human M4 receptors; details: over the concentration range tested
Description: as §3, §2

human M5 receptors [12] = molecular target: T2, human M5 receptors; details: over the concentration range tested
Description: as §3, §2

human M2 receptors [13] = molecular target: T3, human M2 receptors; details: over the concentration range tested
Description: as §3, §2

human M3 receptors = human M3 receptors (Homo sapiens, UniProt P20309); details: over the concentration range tested
Description: as §3, §2

Chain of mouse native M1Rs (P12657 whole entry): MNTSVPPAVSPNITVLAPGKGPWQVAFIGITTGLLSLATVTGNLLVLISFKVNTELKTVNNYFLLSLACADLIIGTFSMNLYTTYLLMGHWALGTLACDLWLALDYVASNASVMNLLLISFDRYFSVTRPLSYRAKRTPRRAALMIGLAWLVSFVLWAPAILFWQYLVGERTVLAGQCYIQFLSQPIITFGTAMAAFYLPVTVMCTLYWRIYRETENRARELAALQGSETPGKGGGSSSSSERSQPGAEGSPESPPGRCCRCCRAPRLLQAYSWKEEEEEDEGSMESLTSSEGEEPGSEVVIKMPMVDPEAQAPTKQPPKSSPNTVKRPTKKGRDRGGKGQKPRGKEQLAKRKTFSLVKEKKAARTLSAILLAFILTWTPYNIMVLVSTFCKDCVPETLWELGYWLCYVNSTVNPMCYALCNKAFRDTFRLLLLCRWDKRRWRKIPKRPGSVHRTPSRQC
T3 sequence (P08172 whole entry): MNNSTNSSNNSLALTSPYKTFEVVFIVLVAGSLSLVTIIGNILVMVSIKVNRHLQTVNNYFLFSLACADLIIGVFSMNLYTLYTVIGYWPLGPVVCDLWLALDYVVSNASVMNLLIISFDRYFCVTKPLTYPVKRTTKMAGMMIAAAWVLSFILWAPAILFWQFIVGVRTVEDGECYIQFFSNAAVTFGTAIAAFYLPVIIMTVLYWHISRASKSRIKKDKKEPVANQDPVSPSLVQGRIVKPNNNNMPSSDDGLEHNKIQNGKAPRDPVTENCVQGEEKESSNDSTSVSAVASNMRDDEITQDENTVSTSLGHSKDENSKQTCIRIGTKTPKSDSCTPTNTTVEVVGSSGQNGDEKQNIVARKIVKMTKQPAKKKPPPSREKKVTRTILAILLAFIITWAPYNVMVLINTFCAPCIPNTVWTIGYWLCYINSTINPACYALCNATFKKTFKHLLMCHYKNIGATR
T1 sequence (P08173 whole entry): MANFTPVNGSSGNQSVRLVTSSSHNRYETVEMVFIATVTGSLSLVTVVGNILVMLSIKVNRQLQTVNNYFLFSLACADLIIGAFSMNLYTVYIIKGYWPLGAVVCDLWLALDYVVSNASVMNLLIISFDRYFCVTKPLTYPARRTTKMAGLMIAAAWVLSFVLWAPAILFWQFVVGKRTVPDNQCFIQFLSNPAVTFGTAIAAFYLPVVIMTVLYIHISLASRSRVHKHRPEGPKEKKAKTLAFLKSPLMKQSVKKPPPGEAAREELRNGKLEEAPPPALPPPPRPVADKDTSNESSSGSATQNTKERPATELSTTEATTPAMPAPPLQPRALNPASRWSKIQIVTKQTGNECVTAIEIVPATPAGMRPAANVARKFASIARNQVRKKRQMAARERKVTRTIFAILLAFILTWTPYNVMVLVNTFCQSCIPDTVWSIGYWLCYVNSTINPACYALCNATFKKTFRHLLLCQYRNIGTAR
Chain of human M1Rs (P11229 whole entry): as the sequence (P12657 whole entry) above, with V5A, S254T, K320R, G337A, V413I counted along it
T2 sequence (P08912 whole entry): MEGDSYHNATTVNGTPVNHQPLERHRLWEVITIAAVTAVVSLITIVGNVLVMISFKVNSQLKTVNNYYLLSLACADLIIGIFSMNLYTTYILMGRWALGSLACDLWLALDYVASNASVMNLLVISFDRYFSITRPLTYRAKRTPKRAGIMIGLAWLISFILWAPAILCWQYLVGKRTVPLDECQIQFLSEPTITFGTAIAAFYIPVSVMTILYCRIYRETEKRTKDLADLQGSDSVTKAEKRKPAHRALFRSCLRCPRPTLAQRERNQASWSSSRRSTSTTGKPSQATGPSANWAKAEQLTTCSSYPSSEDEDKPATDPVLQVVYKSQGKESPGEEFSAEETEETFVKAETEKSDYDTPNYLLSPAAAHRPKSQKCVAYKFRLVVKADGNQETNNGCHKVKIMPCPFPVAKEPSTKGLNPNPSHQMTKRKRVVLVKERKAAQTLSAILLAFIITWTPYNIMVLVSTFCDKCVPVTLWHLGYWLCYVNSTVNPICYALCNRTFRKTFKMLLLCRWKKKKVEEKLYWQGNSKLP
Chain of human M3 receptors (P20309 whole entry): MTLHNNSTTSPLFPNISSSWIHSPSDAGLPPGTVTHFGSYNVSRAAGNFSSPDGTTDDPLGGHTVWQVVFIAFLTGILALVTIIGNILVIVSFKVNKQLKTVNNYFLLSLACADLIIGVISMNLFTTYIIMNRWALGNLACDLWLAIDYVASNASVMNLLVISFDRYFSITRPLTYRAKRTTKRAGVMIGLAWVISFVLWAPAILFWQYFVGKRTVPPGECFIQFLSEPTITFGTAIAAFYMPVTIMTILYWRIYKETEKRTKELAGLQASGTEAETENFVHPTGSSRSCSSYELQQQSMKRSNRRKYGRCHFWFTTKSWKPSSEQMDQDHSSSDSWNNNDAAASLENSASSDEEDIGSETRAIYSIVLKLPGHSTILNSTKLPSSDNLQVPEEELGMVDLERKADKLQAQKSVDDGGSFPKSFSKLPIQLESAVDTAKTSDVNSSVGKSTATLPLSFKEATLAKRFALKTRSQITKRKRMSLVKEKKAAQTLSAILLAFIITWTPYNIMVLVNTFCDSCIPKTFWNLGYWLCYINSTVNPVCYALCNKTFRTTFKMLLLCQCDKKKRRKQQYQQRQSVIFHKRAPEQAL

**Q.** For oxotremorine M, which “Gαq activation response in M1R KO mice” value [1] is on record?
**A.** No response

**Q.** What about the “Emax for Gαq activation” value (mouse native M1Rs; WT hippocampus, percentage of maximal signal with 100 µM oxo-M) of the same compound?
**A.** 99 ± 5%

**Q.** What does the source list for Cc1cc(F)c2[nH]c(=O)n(C3CCN(C4CCOCC4)CC3)c2c1 [GSK1034702]?
**A.** effects on cognition (cognition): positive effects on cognition; CA1 pyramidal cell firing in vivo [2]: increase in CA1 pyramidal cell firing

**Q.** Which EPSP amplitude [3] does the source give for CCCCC1CCN(CCCN2C(=O)CCc3ccccc32)CC1 [77-LH-28-1, 1-[3-(4-butyl-1-piperidinyl)propyl]-3,4-dihydro-2[1H]-quinolinone] here?
**A.** 118.5 ± 24.7%

**Q.** And the IPSP amplitude (CA1 pyramidal neurons [4])?
**A.** 39.1 ± 9.2%

**Q.** And the IPSP amplitude [5]?
**A.** 64.0 ± 13.3%

**Q.** What about the “Gαq activation response in M1R KO mice” value [1] of the same compound?
**A.** no response

**Q.** What about the EPSP amplitude (CA1 pyramidal neurons [6]) of the same compound?
**A.** 194.2 ± 42.0%

**Q.** What about the “depolarization of CA1 pyramidal neurons” value (CA1 pyramidal neurons [7]) of the same compound?
**A.** 10.4 ± 3.9 mV

**Q.** What about the “increase in input resistance” value (CA1 pyramidal neurons [7]) of the same compound?
**A.** 86 ± 51 MΩ

**Q.** And the “cross-reactivity at dopamine D2 receptors” value (dopamine D2 receptors)?
**A.** some cross-reactivity

**Q.** What about the IC50 (human M4 receptors [8]) of the same compound?
**A.** 2030 nM

**Q.** What about the IC50 (human M5 receptors [9]) of the same compound?
**A.** 2220 nM

**Q.** And the IC50 (human M2 receptors [10])?
**A.** 1190 nM

**Q.** What about the “cross-reactivity at 5-HT2B receptors” value (5-HT2B receptors) of the same compound?
**A.** some cross-reactivity

**Q.** And the EC50 (human M1Rs)?
**A.** 22.2 nM

**Q.** And the Emax (human M1Rs; read-out: efficacy (Emax))?
**A.** 98 ± 2%

**Q.** What about the “agonism of M4 receptors” value (human M4 receptors [11]) of the same compound?
**A.** No agonism

**Q.** What about the “agonism of M5 receptors” value (human M5 receptors [12]) of the same compound?
**A.** No agonism

**Q.** And the “agonism of M2 receptors” value (human M2 receptors [13])?
**A.** No agonism

**Q.** What about the “agonism of M3 receptors” value (human M3 receptors) of the same compound?
**A.** No agonism

**Q.** What about the EC50 (mouse native M1Rs) of the same compound?
**A.** 156 nM

**Q.** What about the Emax (mouse native M1Rs; read-out: Emax for Gαq activation) of the same compound?
**A.** 92 ± 2%
